This passage reports inhibition results from patent US4536346A, “Aralkanamidophenyl compounds” (American Cyanamid Company, priority 1983, dated 1985).

Each structure is given as a SMILES string.

The target in this assay is T1, fatty acyl CoA: cholesterol acyl transferase (ACAT) (Rattus norvegicus, UniProt O70536).
T1 construct: The supernatant, containing the microsomal fraction, served as the source of the cholesterol-esterifying enzyme; from tissue; host or cells: rat adrenals (1,000 x g supernatant containing the microsomal fraction)
T1 sequence (O70536 1-545): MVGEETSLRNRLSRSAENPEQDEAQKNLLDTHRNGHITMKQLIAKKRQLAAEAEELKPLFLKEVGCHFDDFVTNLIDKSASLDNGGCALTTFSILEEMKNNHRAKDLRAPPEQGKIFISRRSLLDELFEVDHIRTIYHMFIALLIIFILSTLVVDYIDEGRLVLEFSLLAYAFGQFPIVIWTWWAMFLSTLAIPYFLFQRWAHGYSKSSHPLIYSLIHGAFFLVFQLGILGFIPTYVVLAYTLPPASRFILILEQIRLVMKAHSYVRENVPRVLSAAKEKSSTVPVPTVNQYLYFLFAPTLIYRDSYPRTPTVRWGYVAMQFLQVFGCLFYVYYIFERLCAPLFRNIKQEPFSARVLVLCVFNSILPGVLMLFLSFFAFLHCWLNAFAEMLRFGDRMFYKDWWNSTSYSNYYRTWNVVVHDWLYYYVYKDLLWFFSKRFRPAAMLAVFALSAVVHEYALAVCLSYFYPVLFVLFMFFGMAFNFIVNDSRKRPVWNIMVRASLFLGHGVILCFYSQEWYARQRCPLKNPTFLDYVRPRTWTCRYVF
Description: Inhibition of enzymatic esterification of cholesterol (ACAT) in rat adrenal supernatant containing the microsomal fraction. The format is biochemical. The note with it: final concentration of test compound 5.2 μg./ml., percent inhibition of the ACAT enzyme compared to control values. The procedure:
The compounds of the present invention were tested for their ability to inhibit the enzymatic esterification of cholesterol according to the following procedure:
Rat adrenals were homogenized in 0.2M monobasic potassium phosphate buffer, pH 7.4, and centrifuged at 1,000 times gravity for 15 minutes at 5° C. The supernatant, containing the microsomal fraction, served as the source of the cholesterol-esterifying enzyme, fatty acyl CoA: cholesterol acyl transferase (ACAT). A mixture comprising 50 parts of adrenal supernatant, 10 parts of albumin (BSA) (50 mg./ml.), […], 3 parts of test compound, and 500 parts of buffer was pre-incubated at 37° C. for 10 minutes. After treatment with 20 parts of oleoyl CoA (^14 C-0.4 μCi), the mixture was incubated at 37° C. for 10 minutes. A control mixture, omitting the test compound, was prepared and treated in the same manner. The lipids from the incubation mixture were extracted into an organic solvent and separated by thin-layer chromatography. The cholesterol ester fraction was counted in a scintillation counter. This procedure is a modification of that described by Hashimoto, et al., Life Scie., 12 (Part II), 1-12 (1973).
The results of this test on representative compounds of this invention appear in Table I. The final concentration of the test compound was 5.2 μg./ml., and the effectiveness of the compound is expressed as percent inhibition of the ACAT enzyme compared to control values.
In general, inhibition refers to the percentage by which the read-out fell short of the control. Read a low inhibition as little suppression. Take `Cc1ccc(NC(=O)CC(c2ccc(Cl)cc2)c2ccc(Cl)cc2)cc1` [N--(4-Tolyl)-3,3-bis(p-chlorophenyl)propionamide]: the inhibition at 5.2 µg/mL is 36%.
The compound `Cc1ccc(C(CC(=O)Nc2ccc(Cl)cc2)c2ccc(C)cc2)cc1` [N--(p-Chlorophenyl)-3,3-bis(p-tolyl)propionamide] had an inhibition at 5.2 µg/mL of 89%.
The compound `O=C(C=Cc1ccc(Cl)cc1)Nc1ccc(C(=O)O)cc1` [4-(p-chlorocinnamamido)benzoic acid, 4-(p-Chlorocinnamamido)benzoic acid] came in with an inhibition at 5.2 µg/mL of 41%.
With `CCOC(=O)c1ccc(NC(=O)CCCCCc2ccc(Cl)cc2)cc1` [4-[6-(p-Chlorophenyl)hexanamido]benzoic acid, ethyl ester], the inhibition at 5.2 µg/mL worked out at 42%.
Compound `COc1ccc(C(CC(=O)Nc2ccc(C(C)=O)cc2)c2ccc(OC)cc2)cc1` [4'-[3,3-Bis(4-methoxyphenyl)propionamido]acetophenone] gave an inhibition at 5.2 µg/mL of 82%.
`O=C(CCc1ccc(Cl)cc1)Nc1ccc(C(=O)O)cc1` [4-(p-Chlorohydrocinnamamido)benzoic acid] displayed an inhibition at 5.2 µg/mL of 33%.
The figure for `O=C(CC(c1ccc(Cl)cc1)c1ccc(Cl)cc1)Nc1ccc(C(F)(F)F)cc1` [N--(4-Trifluoromethylphenyl)-3,3-bis(p-chlorophenyl)propionamide] is 35%; for `O=C(C=C(c1ccc(Br)cc1)c1ccc(Br)cc1)Nc1ccc(C(=O)O)cc1` [4-[3,3-Bis(p-bromophenyl)acrylamido]benzoic acid] it is 90%.
Turning to `COc1ccc(C(CC(=O)Nc2ccccc2)c2ccc(OC)cc2)cc1` [N--Phenyl-3,3-bis(4-methoxyphenyl)propionamide], the inhibition at 5.2 µg/mL was determined as 91%.
Compound `CCOC(=O)c1ccc(NC(=O)C=C(c2ccccc2)c2ccc(Cl)cc2)cc1` [4-(p-Chloro-β-phenylcinnamamido)benzoic acid, ethyl ester] came in with an inhibition at 5.2 µg/mL of 92%.
As to `O=C(CCCCCc1ccc(Cl)cc1)Nc1ccc(C(=O)O)cc1` [4-(p-Chlorophenyl)hexanamidobenzoic acid, 4-[6-(p-Chlorophenyl)hexanamido]benzoic acid], 5.2 µg/mL produced 18% inhibition.
`O=C(O)c1ccc(NC(=O)C(c2ccc(Cl)cc2)c2ccc(Cl)cc2)cc1` [4-[2,2-Bis(p-chlorophenyl)acetamido]benzoic acid] yielded an inhibition at 5.2 µg/mL of 71%.
The compound `O=C(C=C(c1ccccc1)c1ccc(Cl)cc1)Nc1ccc(C(=O)O)cc1` [4-(p-Chloro-β-phenylcinnamamido)benzoic acid] returned an inhibition at 5.2 µg/mL of 77%.
With `Cc1ccc(C(=CC(=O)Nc2ccc(C(=O)O)cc2)c2ccc(C)cc2)cc1` [4-[3,3-Di-(p-tolyl)acrylamido]benzoic acid], at 5.2 µg/mL the inhibition was 89%.
The compound `O=C(C=C(c1ccc(Cl)cc1)c1ccc(Cl)cc1)Nc1ccc(C(=O)O)cc1` [4-[3,3-Bis(p-chlorophenyl)acrylamido]benzoic acid] yielded an inhibition at 5.2 µg/mL of 91%.
Regarding `CCOC(=O)c1ccc(NC(=O)CC(c2ccc(C)cc2)c2ccc(C)cc2)cc1` [Ethyl 4'-[3,3-bis(4-methylphenyl)propionamido]benzoate], the inhibition at 5.2 µg/mL came to 95%.
Consider `O=C(CC(c1ccc(Cl)cc1)c1ccc(Cl)cc1)Nc1ccccc1` [N--Phenyl-3,3-bis(p-chlorophenyl)propionamide], for which testing at 5.2 µg/mL gave an inhibition of 50%.
Regarding `O=C(C=C(c1ccc(F)cc1)c1ccc(F)cc1)Nc1ccc(C(=O)O)cc1` [4-[3,3-Bis(p-fluorophenyl)acrylamido]benzoic acid], 5.2 µg/mL produced 79% inhibition.
As for `COc1ccc(C(CC(=O)Nc2ccc(Cl)cc2)c2ccc(OC)cc2)cc1` [N--(p-Chlorophenyl)-3,3-bis(4-methoxyphenyl)propionamide], 5.2 µg/mL produced 91% inhibition.
On to `CCOC(=O)COC(=O)c1ccc(NC(=O)C=C(c2ccc(Cl)cc2)c2ccc(Cl)cc2)cc1` [4-[p-Chloro-β-(p-chlorophenyl)cinnamamido]benzoic acid, ethyl glycolate ester], for which the inhibition at 5.2 µg/mL is 88%.
`CCOC(=O)c1ccc(NC(=O)C=C(c2ccc(F)cc2)c2ccc(F)cc2)cc1` [4-[3,3-Bis(p-fluorophenyl)acrylamido]benzoic acid, ethyl ester] yielded an inhibition at 5.2 µg/mL of 74%.
Compound `CCOC(=O)c1ccc(NC(=O)CCc2ccc(OC)cc2)cc1` [4-(p-Methoxyhydrocinnamamido)benzoic acid, ethyl ester] had an inhibition at 5.2 µg/mL of 28%.
The figure for `CC(=O)c1ccc(NC(=O)CC(c2ccc(Cl)cc2)c2ccc(Cl)cc2)cc1` [N--(4-Acetylphenyl)-3,3-bis(p-chlorophenyl)propionamide] is 95%; for `N#Cc1ccc(NC(=O)CC(c2ccc(Cl)cc2)c2ccc(Cl)cc2)cc1` [N--(4-Cyanophenyl)-3,3-bis(p-chlorophenyl)propionamide] it is 96%; for `Cc1ccc(C(CC(=O)Nc2ccc(C#N)cc2)c2ccc(C)cc2)cc1` [N--(p-Cyanophenyl)-3,3-bis(p-tolyl)propionamide] it is 90%.
As to `CCOC(=O)c1ccc(NC(=O)C=C(c2ccccc2)c2ccc(Cl)c([N+](=O)[O-])c2)cc1` [4-(4-Chloro-3-nitro-β-phenylcinnamamido)benzoic acid, ethyl ester], the inhibition at 5.2 µg/mL turned out to be 94%.
The compound `N#Cc1ccc(NC(=O)C=C(c2ccc(Cl)cc2)c2ccc(Cl)cc2)cc1` [3,3-Bis(p-chlorophenyl-4'-cyanoacrylanilide] had an inhibition at 5.2 µg/mL of 96%.
Consider `CCOC(=O)c1ccc(NC(=O)C=Cc2ccc(OC)cc2)cc1` [4-(p-Methoxycinnamamido)benzoic acid, ethyl ester], for which testing at 5.2 µg/mL gave an inhibition of 53%.
Consider `COc1ccc(C(CC(=O)Nc2ccc(Br)cc2)c2ccc(OC)cc2)cc1` [N--(p-Bromophenyl)-3,3-bis(4-methoxyphenyl)propionamide], for which the inhibition at 5.2 µg/mL came out at 79%.
As for `O=C(C=C(c1ccc(Cl)cc1)c1ccc(Cl)cc1)Nc1ccccc1C(=O)O` [2-[3,3-Bis(p-chlorophenyl)acrylamido]benzoic acid], testing at 5.2 µg/mL gave an inhibition of 32%.
In turn, `CCOC(=O)c1ccc(NC(=O)C=C(C)c2ccc(Cl)cc2)cc1` [4-(p-Chloro-β-methylcinnamamido)benzoic acid, ethyl ester] had an inhibition at 5.2 µg/mL of 74%.
For the compound `CCOC(=O)c1ccc(NC(=O)C=C(c2ccc(Cl)cc2)c2ccc(Cl)cc2)cc1` [4-[3,3-Bis(p-chlorophenyl)acrylamido]benzoic acid, ethyl ester], the inhibition at 5.2 µg/mL amounted to 93%.
The compound `O=C(C=C(c1ccccc1)c1ccccc1)Nc1ccc(C(=O)O)cc1` [4-(3,3-Diphenylacrylamido)benzoic acid] came in with an inhibition at 5.2 µg/mL of 66%.
Regarding `COc1ccc(C(CC(=O)Nc2ccc([N+](=O)[O-])cc2)c2ccc(OC)cc2)cc1` [N--(p-Nitrophenyl)-3,3-bis(4-methoxyphenyl)propionamide], at 5.2 µg/mL the inhibition was 94%.
Consider `COc1ccc(NC(=O)CC(c2ccc(OC)cc2)c2ccc(OC)cc2)cc1` [N--(p-Methoxyphenyl)-3,3-bis(4-methoxyphenyl)propionamide], for which at 5.2 µg/mL the inhibition was 58%.
`CC(=CC(=O)Nc1ccc(C(=O)O)cc1)c1ccc(Cl)cc1` [4-(p-Chloro-β-methylcinnamamido)benzoic acid] gave an inhibition at 5.2 µg/mL of 71%.
For `O=C(CC(c1ccc(Cl)cc1)c1ccc(Cl)cc1)Nc1ccc(C(=O)O)cc1` [4-[3,3-Bis(p-chlorophenyl)propionamido]benzoic acid], the inhibition at 5.2 µg/mL stood at 71%.
`Cc1ccc(C(=CC(=O)Nc2ccc(C(=O)O)cc2)c2ccccc2)cc1` [4-(p-Methyl-β-phenylcinnamamido)benzoic acid] came in with an inhibition at 5.2 µg/mL of 80%.
Next, `Cc1ccc(C(CC(=O)Nc2ccc(F)cc2)c2ccc(C)cc2)cc1` [N--(p-Fluorophenyl)-3,3-bis(p-tolyl)propionamide]: 92%; `COc1ccc(C(CC(=O)Nc2ccc(C#N)cc2)c2ccc(OC)cc2)cc1` [N--(p-Cyanophenyl)-3,3-bis(4-methoxyphenyl)propionamide]: 94%; `CCOC(=O)c1ccc(NC(=O)C=C(c2ccccc2)c2ccccc2)cc1` [p-(3,3-Diphenylacrylamido)benzoic acid, ethyl ester]: 40%.
